According to BindingDB's records for doi:10.1021/jm990599h (National Institute of Diabetes and Digestive and Kidney …, 2000):

Each compound was assayed against Beta-2 adrenergic receptor (Rattus norvegicus) (UniProt P10608) (assay: Binding of [3H]dihydroalprenolol to beta-2 adrenergic receptor of rat cerebellar membranes).
Beta-2 adrenergic receptor (Rattus norvegicus), sequence (P10608 whole entry, looked up): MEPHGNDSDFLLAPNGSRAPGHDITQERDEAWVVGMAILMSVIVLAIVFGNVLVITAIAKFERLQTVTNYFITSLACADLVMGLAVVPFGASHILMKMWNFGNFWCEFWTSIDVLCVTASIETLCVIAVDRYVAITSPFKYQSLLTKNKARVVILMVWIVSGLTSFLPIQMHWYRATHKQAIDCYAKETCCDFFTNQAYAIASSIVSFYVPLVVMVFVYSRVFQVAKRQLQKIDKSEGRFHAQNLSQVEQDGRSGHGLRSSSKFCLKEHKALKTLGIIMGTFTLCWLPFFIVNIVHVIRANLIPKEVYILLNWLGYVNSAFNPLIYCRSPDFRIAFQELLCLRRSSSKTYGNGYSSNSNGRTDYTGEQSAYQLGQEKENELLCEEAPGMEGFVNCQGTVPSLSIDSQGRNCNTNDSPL

Compound	Ki
NCCc1ccc(O)c(O)c1	50 µM
CNCC(O)c1cc(O)c(O)cc1F (stereo not drawn) [(+/-)4-Fluoro-5-(1-hydroxy-2-methylamino-ethyl)-benzene-1,2-diol]	50 µM
CNC[C@H](O)c1cc(O)c(O)cc1F [(R)4-Fluoro-5-(1-hydroxy-2-methylamino-ethyl)-benzene-1,2-diol]	38 µM
